Reference: patent US7517874B2 (priority 2007, dated 2009)

How the values were obtained:
[1] = biological target: human CB1 receptor (hCB1) (Homo sapiens, UniProt P21554); test: cell-based; format: cell-based; settings: for +/− HCB1: agonist or inverse agonist at hCB1
In short: (§1)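 First, cells in IBMX-containing HEPES-buffered HBSS are raised to elevated cAMP with 2-8 μM NKH-477 for 30 min. Data are normalised to the forskolin and forskolin + 1 μM CP55,940 controls.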

[2] = biological target: T1, rat CB2 receptor (rCB2) (Rattus norvegicus, UniProt Q9QZN9); test: cell-based; format: cell-based; settings: for +/− RCB2: agonist or inverse agonist at rCB2
T1 sequence (Q9QZN9 1-360): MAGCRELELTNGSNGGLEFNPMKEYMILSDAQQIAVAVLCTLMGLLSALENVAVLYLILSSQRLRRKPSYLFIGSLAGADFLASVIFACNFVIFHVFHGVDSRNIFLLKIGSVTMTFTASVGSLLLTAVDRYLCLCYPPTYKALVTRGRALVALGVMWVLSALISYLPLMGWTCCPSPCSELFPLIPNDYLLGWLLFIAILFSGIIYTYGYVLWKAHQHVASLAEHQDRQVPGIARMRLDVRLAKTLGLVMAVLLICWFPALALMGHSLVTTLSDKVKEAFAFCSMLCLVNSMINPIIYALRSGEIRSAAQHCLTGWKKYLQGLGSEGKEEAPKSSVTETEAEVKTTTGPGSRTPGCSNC
In short: as §1

human CB1 receptor (hCB1), sequence (P21554 whole entry): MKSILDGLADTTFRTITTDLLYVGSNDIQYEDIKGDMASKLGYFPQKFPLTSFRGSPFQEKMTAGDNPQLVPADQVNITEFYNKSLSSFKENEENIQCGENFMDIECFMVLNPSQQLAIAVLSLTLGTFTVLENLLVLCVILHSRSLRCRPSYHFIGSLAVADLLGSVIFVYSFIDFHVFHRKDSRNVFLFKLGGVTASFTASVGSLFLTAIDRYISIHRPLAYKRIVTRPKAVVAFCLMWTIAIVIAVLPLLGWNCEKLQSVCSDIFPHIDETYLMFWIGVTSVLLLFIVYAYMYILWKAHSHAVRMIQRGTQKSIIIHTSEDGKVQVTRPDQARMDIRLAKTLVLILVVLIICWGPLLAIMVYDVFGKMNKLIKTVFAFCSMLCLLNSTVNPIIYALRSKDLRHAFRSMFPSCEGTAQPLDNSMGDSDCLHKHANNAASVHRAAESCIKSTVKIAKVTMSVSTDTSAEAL

SMILES	+/− HCB1 [1]	+/− RCB2 [2]	EC50 [1]	EC50 [2]
CNC(=O)[C@H](CC(C)(C)C)NC(=O)c1nc(-c2cc(F)c(F)cc2F)n2c1CN(C)CCC2 [Compound 555, (S)-N-(4,4-dimethyl-1-(methylamino)-1-oxopentan-2-yl)-8-methyl-3-(2,4,5-trifluorophenyl)-6,7,8,9-tetrahydro-5H-imidazo[1,5-a][1,4]diazepine-1-carboxamide]	+	+		
CC(C)C[C@H](NC(=O)c1nc(-c2ccc(F)cc2F)n2c1CN(C)CCC2)C(N)=O [Compound 568, (S)-N-(1-amino-4-methyl-1-oxopentan-2-yl)-3-(2,4-difluorophenyl)-8-methyl-6,7,8,9-tetrahydro-5H-imidazo[1,5-a][1,4]diazepine-1-carboxamide]	+	+		
CNC(=O)[C@@H](NC(=O)c1nc(CCC(C)(C)C)n2c1CN(C)CCC2)C(C)(C)C [Compound 488, (S)-N-(3,3-dimethyl-1-(methylamino)-1-oxobutan-2-yl)-3-(3,3-dimethylbutyl)-8-methyl-6,7,8,9-tetrahydro-5H-imidazo[1,5-a][1,4]diazepine-1-carboxamide]		+	> 10 µM	
CNC(=O)c1ccc(-c2nc(C(=O)N[C@H](C(=O)NC)C(C)(C)C)c3n2CCCN(C)C3)cc1 [Compound 408]			> 10 µM	> 10 µM
C[C@H](NC(=O)c1nc(-c2ccccc2)n2c1CN(CCO)CC2)c1ccccc1 [Compound 146, (S)-7-(2-hydroxyethyl)-3-phenyl-N-(1-phenylethyl)-5,6,7,8-tetrahydroimidazo[1,5-a]pyrazine-1-carboxamide]		−	> 10 µM	
CNC(=O)[C@@H](NC(=O)c1nc(-c2ccccc2)n2c1CN(S(=O)(=O)c1ccc(F)cc1)CCC2)C(C)(C)C [Compound 464, (S)-N-(3,3-dimethyl-1-(methylamino)-1-oxobutan-2-yl)-8-(4-fluorophenylsulfonyl)-3-phenyl-6,7,8,9-tetrahydro-5H-imidazo[1,5-a][1,4]diazepine-1-carboxamide]		−	> 10 µM	
CNC(=O)[C@@H](NC(=O)c1nc(Cc2ccccc2)n2c1CN(C)CCC2)C(C)(C)C [Compound 459, (S)-3-benzyl-N-(3,3-dimethyl-1-(methylamino)-1-oxobutan-2-yl)-8-methyl-6,7,8,9-tetrahydro-5H-imidazo[1,5-a][1,4]diazepine-1-carboxamide]		+	> 10 µM	
CNC(=O)[C@@H](NC(=O)c1nc(/C=C/c2ccsc2)n2c1CN(C)CCC2)C(C)(C)C [Compound 446]		+	> 10 µM	
CNC(=O)[C@H](C)NC(=O)c1nc(-c2ccccc2)n2c1CN(S(=O)(=O)c1ccc(F)cc1)CC2 [Compound 110, (S)-7-(4-fluorophenylsulfonyl)-N-(1-(methylamino)-1-oxopropan-2-yl)-3-phenyl-5,6,7,8-tetrahydroimidazo[1,5-a]pyrazine-1-carboxamide]		+	> 10 µM	
CNC(=O)[C@@H](NC(=O)c1nc(/C=C/CN2CCCCC2)n2c1CN(C)CCC2)C(C)(C)C [Compound 510, (S,E)-N-(3,3-dimethyl-1-(methylamino)-1-oxobutan-2-yl)-8-methyl-3-(3-(piperidin-1-yl)prop-1-enyl)-6,7,8,9-tetrahydro-5H-imidazo[1,5-a][1,4]diazepine-1-carboxamide]		+	> 10 µM	
CN1CCCn2c(-c3cc(F)ccc3F)nc(C(=O)N[C@H](C(N)=O)C(C)(C)C)c2C1 [Compound 575, (S)-N-(1-amino-3,3-dimethyl-1-oxobutan-2-yl)-3-(2,5-difluorophenyl)-8-methyl-6,7,8,9-tetrahydro-5H-imidazo[1,5-a][1,4]diazepine-1-carboxamide]	+	+		
